Patent US20220233661A1, “METHOD OF DETERMINING ELIGIBILITY OF CANCER PATIENT FOR PEPTIDE VACCINE THERAPY” (priority 2019, published 2022)

Key:
[1] = system: anti-peptide IgG in plasma; assay: Test Example 4: peptide-specific IgG titer pre and post vaccination, bead-based multiplexed Luminex assay; format: in vivo, human; conditions: for Pre-vaccination IgG Negative (number of patients) / Pre-vaccination IgG Positive (number of patients): cut off 10 FIU; for Post vaccination IgG: number of (positive) patients among vaccinated: positive IgG response; for Pre-vaccination IgG Negative patients: number of 2,588 patients below 10 FIU; for Pre-vaccination IgG Positive patients: number of 2,588 patients with ≥10 FIU; for Post vaccination IgG: (positive) patients: number of vaccinated patients with positive IgG response; for Correlation between immune responses and OS: Negative (mOS): patients with negative post-vaccination IgG response to the peptide; for Correlation between immune responses and OS: Positive (mOS): patients with positive post-vaccination IgG response to the peptide
Procedure, shortened: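 Plasma taken before vaccination and at the end of the first and second cycles; incubated with peptide-coupled beads 2 hours at 25° C., then biotinylated anti-human IgG (gamma chain-specific) and streptavidin-PE. Bead FIU read by Luminex; positivity cutoff 10 FIU in 100-fold diluted samples.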

[2] = system: cancer patients; assay: Test Example 4: correlation between vaccination with individual peptides (or peptide sets) and OS, Cox proportional hazards regression; format: in vivo, human; conditions: for HR: Cox proportional hazards regression, OS; for Correlation between immune responses and OS: Negative (mOS) / Correlation between immune responses and OS: Positive (mOS): Table 20, <64% neutrophil and ≥26% lymphocyte; for Correlation between immune responses and OS: Negative (mOS): vaccinated patients with negative IgG response; for Correlation between immune responses and OS: Positive (mOS): vaccinated patients with positive IgG response
Procedure, shortened: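 Univariate and multivariate Cox proportional hazards regression of each of 31 vaccine peptides against OS (enrollment to death or last contact), giving HR with 95% CI; also run separately in 2,085 advanced (stage IV+recurrence) and 503 stage I-III patients. Two-sided p<0.05 considered significant.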

[3] = Table 20, patients showing both <64% neutrophil and ≥26% lymphocyte
[4] = patients showing detectable levels
[5] = patients showing positive responses
[6] = 2,085 advanced cancer patients (stage IV+recurrence)
[7] = Table 18, all 2,588 cases, vaccinated vs non-vaccinated
[8] = Table 18, all 2,588 cases, median OS of patients under PPV containing the peptide
[9] = Table 18, all 2,588 cases, median OS of patients under PPV not containing the peptide
[10] = Table 19, 2,085 advanced cancer patients (stage IV+recurrence)
[11] = Table 19, 2,085 advanced cancer patients (stage IV+recurrence), PPV containing the peptide
[12] = Table 19, 2,085 advanced cancer patients (stage IV+recurrence), PPV not containing the peptide
[13] = Table 21, patients showing both <64% neutrophil and ≥26% lymphocyte
[14] = Table 21, patients showing both <64% neutrophil and ≥26% lymphocyte, PPV containing the peptide
[15] = Table 21, patients showing both <64% neutrophil and ≥26% lymphocyte, PPV not containing the peptide
[16] = all 2,588 cases, PPV containing the peptide
[17] = all 2,588 cases, PPV not containing the peptide

Row | Sequence | Post vaccination IgG Median (FIU) [1, 3] | Pre-vaccination IgG Median (FIU) [1, 3] | Pre-vaccination IgG Negative (number of patients) [1, 3] | Pre-vaccination IgG Positive (number of patients) [1, 3] | Post vaccination IgG: number of (positive) patients among vaccinated [1, 3] | Pre-vaccination IgG Negative patients [1] | Pre-vaccination IgG Positive patients [1] | Post vaccination IgG: (positive) patients [1] | Pre-vaccination IgG Median (FIU) [1, 4] | Post vaccination IgG Median (FIU) [1, 5] | Correlation between immune responses and OS: Negative (mOS) [1] | Correlation between immune responses and OS: Positive (mOS) [1] | HR [2, 7] | Vaccinate cases (mOS) [2, 8] | Non-vaccinate cases (mOS) [2, 9] | HR [2, 10] | Vaccinate cases (mOS) [2, 11] | Non-vaccinate cases (mOS) [2, 12] | Correlation between immune responses and OS: Negative (mOS) [2] | Correlation between immune responses and OS: Positive (mOS) [2] | also measured
1 | DYVREHKDNI (listed as Homo sapiens) [EGFR-800] | 746 FIU | 32 FIU | 431 | 635 | 176(79) | 1,046 | 1,542 | 390(156) | 30 FIU | 715 FIU | 12.4 months | 24.3 months | 0.8 | 390(14.3) M | 1,160(11.1) M | 0.8 | 299(13.1) M | 947(9.6) M | 17.1 months | 27.5 months | median OS of non-vaccinated cases [2, 6]: 9.6 months; median OS of vaccinated cases [2, 6]: 13.1 months; HR [2, 13]: 0.9; Vaccinate cases (mOS) [2, 14]: 176(21.2) M; Non-vaccinate cases (mOS) [2, 15]: 449(21.2) M; median OS of vaccinated cases [2, 16]: 14.3 months; median OS of non-vaccinated cases [2, 17]: 11.1 months
2 | TFDYLRSVL (listed as Homo sapiens) [Lck-486] | 17,613 FIU | 40 FIU | 167 | 899 | 356(274) | 404 | 2,184 | 879(573) | 42 FIU | 15,147 FIU | 7.2 months | 19.4 months | 0.9 | 879(12.3) M | 671(11.3) M | 0.9 | 709(11.1) M | 537(9.6) M | 11.4 months | 25.2 months | median OS of non-vaccinated cases [2, 6]: 9.6 months; median OS of vaccinated cases [2, 6]: 11.1 months; HR [2, 13]: 0.9; Vaccinate cases (mOS) [2, 14]: 356(19.1) M; Non-vaccinate cases (mOS) [2, 15]: 269(17.6) M; median OS of vaccinated cases [2, 16]: 12.3 months; median OS of non-vaccinated cases [2, 17]: 11.3 months
3 | VYDYNCHVDL (listed as Homo sapiens) [SART3-109] | 9,770 FIU | 30 FIU | 572 | 494 | 192(116) | 1,382 | 1,206 | 474(223) | 31 FIU | 7,875 FIU | 10.3 months | 19.0 months | 1.0 | 474(12.3) M | 1,948(11.5) M | 1.0 | 376(10.6) M | 1566(10.2) M | 17.1 months | 24.1 months | HR [2, 13]: 1.0; Vaccinate cases (mOS) [2, 14]: 192(19.8) M; Non-vaccinate cases (mOS) [2, 15]: 796(18.0) M
4 | GIHKQKEKSR (listed as Homo sapiens) [PAP-248] | 1,981 FIU | 38 FIU | 543 | 523 | 64(31) | 1,302 | 1,286 | 147(62) | 37 FIU | 2,136 FIU | 9.9 months | 21.1 months | 1.0 | 147(11.4) M | 1,067(11.1) M | 0.8 | 124(10.1) M | 845(9.9) M | 13 months | 21.3 months | median OS of patients with the peptide vs patients without it ([2]; 1,066 patients with <64% neutrophil and ≥26% lymphocyte): shorter; HR [2, 13]: 1.1; Vaccinate cases (mOS) [2, 14]: 64(15.5) M; Non-vaccinate cases (mOS) [2, 15]: 443(17.6) M
5 | LLQAEAPRL (listed as Homo sapiens) [SART3-302] | 17,719 FIU | 84 FIU | 375 | 691 | 173(138) | 948 | 1,640 | 408(271) | 84 FIU | 14,958 FIU | 9.1 months | 18.2 months | 0.9 | 408(12.7) M | 642(10.5) M | 0.9 | 328(11.4) M | 534(9.8) M | 10.8 months | 21.2 months | HR [2, 13]: 0.9; Vaccinate cases (mOS) [2, 14]: 173(18.1) M; Non-vaccinate cases (mOS) [2, 15]: 261(16.3) M
6 | ASLDSDPWV (listed as Homo sapiens) [WHSC2-103] | 916 FIU | 40 FIU | 381 | 685 | 289(105) | 915 | 1,673 | 729(222) | 43 FIU | 827 FIU | 12.1 months | 19.6 months | 1.0 | 729(11.5) M | 1,465(11.6) M | 1.0 | 581(10.2) M | 1193(10.3) M | 14.4 months | 27.1 months | HR [2, 13]: 1.0; Vaccinate cases (mOS) [2, 14]: 289(17.6) M; Non-vaccinate cases (mOS) [2, 15]: 617(18.0) M
7 | VIQNLERGYR (listed as Homo sapiens) [Lck-449] | 18,734 FIU | 23 FIU | 475 | 591 | 57(38) | 1,182 | 1,406 | 127(67) | 23 FIU | 18,919 FIU | 6.2 months | 19.5 months | 0.9 | 127(13.7) M | 1,087(10.8) M | 0.8 | 102(13.3) M | 867(9.5) M | 10 months | 27.1 months | HR [2, 13]: 0.8; Vaccinate cases (mOS) [2, 14]: 57(18.1) M; Non-vaccinate cases (mOS) [2, 15]: 450(17.5) M
